What was measured:
[1] = Ratio of drug level in brain to plasma in C57Bl/6 mouse at 30 mg/kg, ip; type: ADME, organism-based; details: read-out: BPR
[2] = Plasma concentration in C57Bl/6 mouse at 30 mg/kg, ip measured after 60 mins; type: ADME, organism-based

Kp [1]: 0.5 | concentration at 1 h [2]: 2800 nM
SMILES: N#Cc1c(-c2ccccc2)nc2[nH]nc(-c3ccc(Cl)c(C(F)(F)F)c3)c2c1C1CC1

— ChEMBL document CHEMBL3864179, “Development of 1H-Pyrazolo[3,4-b]pyridines as Metabotropic Glutamate Receptor 5 Positive Allosteric Modulators” (ACS Med Chem Lett, 2016)
